# Experimental data: patent US20250034150A1, “BTK INHIBITORS” (BIOGEN MA INC., priority 2021, published 2025)
# Where a name gives a salt, the structure may show the parent alone.
# Key:
# [1] = system: CD69 expression on CD19+ B cells in human whole blood; experiment: In Vitro whole blood CD69 Assay; assay type: cell-based; details: B-cell; human heparinized whole blood, anti-human IgD stimulation overnight, CD19+ B cells, flow cytometry; read-out: In Vitro HWB CD69 Assay IC50 Score
# How it was run: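 Heparinized healthy-donor human whole blood was preincubated with compound (0.1% DMSO) for 30 min at 37 °C. Stimulation used 0.1 µg/mL anti-IgD-dextran or 20 µg/mL rabbit F(ab′)2 anti-IgD for 18–22 h at 37 °C. CD69 on gated CD19+ B cells was then measured by flow cytometry.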
# BTK = biological target: T1, BTK (Homo sapiens, UniProt Q06187); experiment: In Vitro BTK Kinase Assay: Btk-PolyGAT-LS Assay; assay type: biochemical; details: active BTK enzyme 0.25 nM, polyGAT 100 nM, 30 minutes, TRF readout; read-out: In Vitro BTK Kinase Assay IC50 Score
# T1 construct: purchased Upstate 14-552
# How it was run: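 Active BTK at 0.25 nM phosphorylated 100 nM fluorescein-polyGAT peptide at 10 μM ATP for 30 minutes. Buffer was Tris pH 7.5 with MgCl2, DTT, Triton X-100 and casein, and reactions were stopped with EDTA. Phospho-peptide was detected by Tb-PY20 antibody TR-FRET, and IC50 came from a four-parameter fit normalized to DMSO and EDTA controls.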
# T1 sequence (Q06187 whole entry): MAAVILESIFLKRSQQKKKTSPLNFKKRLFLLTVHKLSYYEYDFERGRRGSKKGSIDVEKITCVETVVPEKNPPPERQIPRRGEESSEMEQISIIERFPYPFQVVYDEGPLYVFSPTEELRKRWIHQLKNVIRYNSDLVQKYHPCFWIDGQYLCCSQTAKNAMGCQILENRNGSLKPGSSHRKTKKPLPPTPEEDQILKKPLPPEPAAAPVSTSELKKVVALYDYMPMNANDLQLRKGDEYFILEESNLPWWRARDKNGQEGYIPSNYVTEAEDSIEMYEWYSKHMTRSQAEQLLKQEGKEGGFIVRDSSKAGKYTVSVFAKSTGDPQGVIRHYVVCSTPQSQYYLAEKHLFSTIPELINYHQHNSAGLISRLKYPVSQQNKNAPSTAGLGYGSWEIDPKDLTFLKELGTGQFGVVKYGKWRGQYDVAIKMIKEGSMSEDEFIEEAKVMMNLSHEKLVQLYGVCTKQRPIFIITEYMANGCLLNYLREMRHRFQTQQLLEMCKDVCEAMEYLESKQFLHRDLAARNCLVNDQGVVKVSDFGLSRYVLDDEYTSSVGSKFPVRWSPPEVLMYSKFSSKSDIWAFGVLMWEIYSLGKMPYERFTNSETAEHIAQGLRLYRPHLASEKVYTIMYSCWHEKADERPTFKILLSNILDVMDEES
IC50 [1] [nM],IC50 (BTK) [nM],Structure (SMILES)
1000 to 10000,1 to 10,"Cn1cc(-c2cn3nccc3c(N3CC[C@H](CNC(=O)c4coc(C(C)(C)C)n4)[C@H](F)C3)n2)cn1 [Example 153, 2-(tert-butyl)-N-(((3S,4R)-3-fluoro-1-(6-(1-methyl-1H-pyrazol-4-yl)pyrazolo[1,5-a]pyrazin-4-yl)piperidin-4-yl)methyl)oxazole-4-carboxamide]"
< 1000,< 1,"Cn1cc(-c2cn3nccc3c(N3CCC(CNC(=O)c4noc(C(C)(C)C)n4)C(F)(F)C3)n2)cn1 (stereo not shown) [Example 157, 5-(tert-butyl)-N-((3,3-difluoro-1-(6-(1-methyl-1H-pyrazol-4-yl)pyrazolo[1,5-a]pyrazin-4-yl)piperidin-4-yl)methyl)-1,2,4-oxadiazole-3-carboxamide]"
1000 to 10000,1 to 10,"Cn1cc(-c2cn3nccc3c(N3CCC(F)(CNC(=O)c4noc(C(C)(C)C)n4)CC3)n2)cn1 [Example 160, 5-(tert-butyl)-N-((4-fluoro-1-(6-(1-methyl-1H-pyrazol-4-yl)pyrazolo[1,5-a]pyrazin-4-yl)piperidin-4-yl)methyl)-1,2,4-oxadiazole-3-carboxamide]"
1000 to 10000,1 to 10,"Cn1cc(-c2cn3nccc3c(N3CCC(F)(CNC(=O)c4noc(C5(C)CC5)n4)CC3)n2)cn1 [Example 161, N-((4-fluoro-1-(6-(1-methyl-1H-pyrazol-4-yl)pyrazolo[1,5-a]pyrazin-4-yl)piperidin-4-yl)methyl)-5-(1-methylcyclopropyl)-1,2,4-oxadiazole-3-carboxamide trifluoroacetate]"

# Second part, the molecule before the results:
Structure (SMILES),IC50 [1] [nM],IC50 (BTK) [nM]
"CC1CN(c2nc(-c3cnn(C)c3)cn3nccc23)CCC1CNC(=O)c1noc(C2(C)CC2)n1 (stereo not shown) [Example 149, N-((3-methyl-1-(6-(1-methyl-1H-pyrazol-4-yl)pyrazolo[1,5-a]pyrazin-4-yl)piperidin-4-yl)methyl)-5-(1-methylcyclopropyl)-1,2,4-oxadiazole-3-carboxamide]",1000 to 10000,1 to 10
"Cn1cc(-c2cn3nccc3c(N3CC[C@H](CNC(=O)c4cn(C(C)(C)C)nn4)[C@H](F)C3)n2)cn1 [Example 152, 1-(tert-butyl)-N-((3-fluoro-1-(6-(1-methyl-1H-pyrazol-4-yl)pyrazolo[1,5-a]pyrazin-4-yl)piperidin-4-yl)methyl)-1H-1,2,3-triazole-4-carboxamide]",1000 to 10000,1 to 10
"Cn1cc(-c2cn3nccc3c(N3CC[C@H](CNC(=O)c4noc(C5(C)CC5)n4)[C@H](F)C3)n2)cn1 [Example 154, N-(((3S,4R)-3-fluoro-1-(6-(1-methyl-1H-pyrazol-4-yl)pyrazolo[1,5-a]pyrazin-4-yl)piperidin-4-yl)methyl)-5-(1-methylcyclopropyl)-1,2,4-oxadiazole-3-carboxamide]",1000 to 10000,10 to 1000
"Cn1cc(-c2cn3nccc3c(N3CCC(CN4CCN(CC(C)(C)C)CC4=O)CC3)n2)cn1 [Example 172, 1-((1-(6-(1-methyl-1H-pyrazol-4-yl)pyrazolo[1,5-a]pyrazin-4-yl)piperidin-4-yl)methyl)-4-neopentylpiperazin-2-one]",1000 to 10000,10 to 1000
